Several values for one entry are separate records, joined by “and”; a condition that tells them apart may be missing. Equal values may be shown once.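 Protocol summary: plate cells (96-well), add compound at 5 concentrations, incubate 48 h, interpolate endpoints linearly. GI50 marks 50% less growth. Definition used: TGI = concentration required for complete inhibition of growth.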
Key:
Test in all cases: DTP human tumour cell line panel, 48 h
MALME-3M melanoma = tested on: MALME-3M melanoma
NCI-H226 lung = tested on: NCI-H226 lung
SNB-19 CNS = tested on: SNB-19 CNS
COLO 205 colon = tested on: COLO 205 colon
SK-OV-3 ovarian = tested on: SK-OV-3 ovarian
PC-3 prostate = tested on: PC-3 prostate
IGROV1 ovarian = tested on: IGROV1 ovarian
UACC-257 melanoma = tested on: UACC-257 melanoma

| SMILES | GI50 (MALME-3M melanoma) | TGI (MALME-3M melanoma) | GI50 (NCI-H226 lung) | TGI (NCI-H226 lung) [µM] | GI50 (SNB-19 CNS) | TGI (SNB-19 CNS) [µM] | GI50 (COLO 205 colon) | TGI (COLO 205 colon) [µM] | GI50 (SK-OV-3 ovarian) [µM] | TGI (SK-OV-3 ovarian) [µM] | GI50 (PC-3 prostate) | TGI (PC-3 prostate) [µM] | GI50 (IGROV1 ovarian) | TGI (IGROV1 ovarian) | GI50 (UACC-257 melanoma) | TGI (UACC-257 melanoma) [µM] |
| --- | --- | --- | --- | --- | --- | --- | --- | --- | --- | --- | --- | --- | --- | --- | --- | --- |
| CCCCN(CC)c1ncnc2ccc(Br)cc12 | 19.1 µM | 38.5 µM | 16.3 µM | 48 | 35.2 µM | > 100 | 20.4 µM | 63.7 | 18.8 | 49.4 | 18.9 µM | 49.6 | 16.7 µM | > 100 µM | – | – |
| CC12CC=CCC1CCC1C2CCC2(C)C(c3ccc(=O)oc3)CCC12O (stereo not drawn) | 0.104 µM | 0.364 µM | 0.219 µM | 0.595 | 0.295 µM | 1.19 | 0.36 µM | 1.45 | 0.276 | 0.688 | 0.0747 µM | 0.309 | 0.0737 µM | 1.41 µM | 0.246 µM | 0.769 |
| CSc1nsc(S/C=C\C(=O)c2ccc(C)cc2)n1 | 19 µM | 38.6 µM | 20.7 µM | 55.5 | 28.1 µM | > 68.2 | 25.5 µM | > 63.7 | 60.7 | > 100 | 29 µM | > 57.6 | 25.5 µM | > 100 µM | 22.6 µM | 49.2 |
| CC1(C)C(=O)C=CC2(C)C1CC(O)C1(C)C2CCC2(C)C(c3ccoc3)OC(=O)C3OC321 (stereo not drawn) | – | – | – | 33.3 | – | 44.3 | – | 50.3 | – | > 100 | – | > 100 | – | 33.9 µM | – | – |
| Cc1ccc(/C=C2/NC(=S)SC2=O)cc1 | – | – | – | > 100 | – | > 100 | – | > 100 | – | > 100 | – | > 100 | – | > 100 µM | – | > 100 |
| COc1cc2ncnc3c2cc1OCCCCCN(C)Cc1ccc(Br)cc1N3 | 1.47 µM and 6.85 µM | 23.3 µM and > 10 µM | 26.4 µM and 7.69 µM | > 100 | 24.6 µM and > 10 µM | > 100 | 5.68 µM and 4.67 µM | > 100 | 0.315 | 1.09 | 4.65 µM and 3.85 µM | > 100 | 0.35 µM and 0.31 µM | 10.6 µM and 4.31 µM | 17.9 µM and > 10 µM | > 100 |
| N=c1ccc2nc3c(cc(N)c4ccccc43)oc-2c1 | 0.169 µM | 0.362 µM | 0.386 µM | 1.63 | 0.242 µM | 0.795 | 0.237 µM | 0.892 | 0.477 | 1.73 | 0.217 µM | 1.71 | 0.18 µM | 0.643 µM | 0.271 µM | 0.819 |
| Cc1cc(=O)oc2cc(OC(=O)N(CCCl)CCCl)ccc12 | – | > 100 µM | – | > 100 | – | > 100 | – | > 100 | – | > 100 | – | > 100 | – | > 100 µM | – | > 100 |
| COc1cc(C2c3cc4c(cc3[C@@H](N(C)C)[C@H]3COC(=O)C23)OCO4)cc(OC)c1O (stereo partly drawn) | – | > 100 µM | – | > 100 | – | – | – | > 100 | – | > 100 | – | – | – | > 100 µM | – | > 100 |
| Nc1nc(N)nc(CC(=O)O)n1 | – | > 100 µM | – | > 100 | – | > 100 | – | > 100 | – | > 100 | – | > 100 | – | > 100 µM | – | > 100 |

Source: PubChem BioAssay (NCI)
